From PMC7251097, “Aspartate/asparagine-β-hydroxylase: a high-throughput mass spectrometric assay for discovery of small molecule inhibitors” (Scientific Reports, 2020) come the findings set out here.

The experiment deals with T1, His6-AspH315–758 (human aspartate/asparagine-β-hydroxylase, AspH) (Homo sapiens, UniProt Q12797).
T1 construct: N-Terminally His6-tagged human AspH315–758 (His6-AspH315–758) was produced in E. coli BL21 (DE3) cells; made in house; host or cells: E. coli BL21 (DE3), pET-28a(+) vector
T1 sequence (Q12797 315-758): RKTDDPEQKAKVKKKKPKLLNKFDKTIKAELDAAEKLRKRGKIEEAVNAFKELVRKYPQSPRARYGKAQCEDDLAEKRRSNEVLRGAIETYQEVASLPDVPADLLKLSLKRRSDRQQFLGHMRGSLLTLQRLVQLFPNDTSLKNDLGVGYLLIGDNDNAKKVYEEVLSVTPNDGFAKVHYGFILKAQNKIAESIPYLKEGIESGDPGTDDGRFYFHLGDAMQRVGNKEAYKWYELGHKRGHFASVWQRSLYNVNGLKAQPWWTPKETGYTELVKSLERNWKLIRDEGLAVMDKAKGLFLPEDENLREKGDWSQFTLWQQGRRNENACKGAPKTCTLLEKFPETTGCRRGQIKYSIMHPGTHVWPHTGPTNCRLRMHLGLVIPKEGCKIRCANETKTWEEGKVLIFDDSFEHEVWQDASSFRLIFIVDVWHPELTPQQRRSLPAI
The experiment can be described thus: SPE-MS AspH inhibition assay (LOPAC screen at fixed 20 μM and IC50 dose-response), hydroxylation of cyclic peptide hFX-CP101–119. Type of experiment: biochemical. Particulars: for % inhibition: 20 µM.

The mark [1] stands for this setting: LOPAC Plate 4, compound at 20 uM, substrate conversion.
[2] abbreviates: LOPAC Plate 4, compound at 20 uM, read-out: % inhibition.
Setting [3] is: LOPAC compound at fixed 20 uM, plate 1, normalised to DMSO and 2,4-PDCA controls.
The mark [4] stands for this setting: LOPAC compound at fixed 20 uM, substrate conversion, plate 1.
Setting [5] is: LOPAC compound at 20uM, conversion of substrate peptide.

Where a name gives a salt, the structure may show the parent alone. Read-outs that look alike come from different tables or passages of the source.

By % inhibition is commonly meant the change of the read-out against control, counted positive when it falls. For `O=[N+]([O-])c1ccc2c(c1)S(=O)(=O)C=C2` [Stattic], the “% conversion” value turned out to be 34.71% and the “% inhibition” value was found to be 5.15%.
By inhibition is commonly meant the drop in the measured response relative to a control, in per cent. Consider `C=C1C[C@@]23CC[C@H]4[C@@](C)(CCC[C@@]4(C)C(=O)O)[C@@H]2CC[C@]1(O)C3` [Steviol], for which the “% conversion” value under setting [1] was determined as 37.50%. The inhibition at 20 µM under setting [2] is -3.02%.
Regarding `C[N+](C)(C)CCOC(=O)CCC(=O)OCC[N+](C)(C)C` [Succinylcholine chloride], the “% conversion” value was determined as 39.43% and the inhibition at 20 µM was -8.69%.
As for `Nc1ccc(S(=O)(=O)Nc2ccnn2-c2ccccc2)cc1` [Sulfaphenazole], the “% conversion” value under setting [1] is given as 26.59%.
Still for that read-out and setting: the value for `CC1=C(CC(=O)O)c2cc(F)ccc2/C1=C\c1ccc(S(C)(=O)=O)cc1` [Sulindac sulfone] was 33.98%.
In the case of `CC1=C(CC(=O)O)c2cc(F)ccc2/C1=C\c1ccc([S+](C)[O-])cc1` (stereo not shown) [Sulindac], the “% conversion” value under setting [1] was 35.56%. In addition, under setting [2], the inhibition at 20 µM turned out to be 2.67%.
With `CCN(CC)CCNC(=O)c1c(C)[nH]c(/C=C2\C(=O)Nc3ccc(F)cc32)c1C` [Sunitinib malate], the “Plate 2 (% conversion)” value (LOPAC compound at 20uM, plate 2, conversion of substrate peptide) was 11.67%. Also, where the note is “LOPAC compound at 20uM, plate 2, normalised to DMSO and 2,4-PDCA controls, read-out: Plate 2 (% inhibition)”, the inhibition at 20 µM came out at 72.5%.
Regarding `CCN(CC)CCNC(=O)c1c(C)[nH]c(/C=C2\C(=O)Nc3ccc(F)cc32)c1C` [Sunitinib], the “Plate 5 (% inhibition)” value (plate 5 (Pfitzer), test compounds at fixed 20 μM) is reported as 67.34%. In addition, the “Plate 5 (% conversion)” value (plate 5 (Pfitzer), test compounds at fixed 20 μM, mean conversion DMSO 32.88) is given as 13.39%.
For `CC(=O)/C=C1\C(=O)N(C)c2ccccc21` [Supercinnamaldehyde], the “Plate 1 (% inhibition)” value under setting [3] was -3.46%. Further, the “Plate 1 (% conversion)” value under setting [4] is 37.03%.
What is called Inhibition is the drop in the measured response relative to a control, in per cent. `Cc1ccc(C(=O)Nc2ccc(S(=O)(=O)[O-])c3cc(S(=O)(=O)[O-])cc(S(=O)(=O)[O-])c23)cc1NC(=O)c1cccc(NC(=O)Nc2cccc(C(=O)Nc3cc(C(=O)Nc4ccc(S(=O)(=O)[O-])c5cc(S(=O)(=O)[O-])cc(S(=O)(=O)[O-])c45)ccc3C)c2)c1.[Na+].[Na+].[Na+].[Na+].[Na+].[Na+]` [Suramin sodium salt, reference compound]: the “Inhibition at 20 µM [%]” value (AspH activity, fixed compound concentration 20 μM, initial LOPAC screen, 0.5%v/v DMSO) is given as 103.3%. For the same compound, under setting [1], the “% conversion” value was determined as 1.22%.
Consider `O=C(Nc1ccncc1)c1cc([N+](=O)[O-])ccc1Cl` [T0070907], for which, under setting [5], the “Plate 3 (% conversion)” value stood at 31.53%.
For the compound `Brc1c(Br)c(Br)c2[nH]cnc2c1Br` [TBBz], the “Plate 1 (% conversion)” value amounted to 32.96% and the “Plate 1 (% inhibition)” value was 8.67%.
What is called IC50 is the concentration that gives 50% inhibition. For the compound `O=C(O)CCN(O)C(=O)CCCCCCCCC1CC1` [TC-E 5002, reference compound], for the setting “50 nM His6-AspH315–758, 1.0 μM hFX-CP101–119, 3 μM 2OG, 2 μM Fe(II), 50 mM HEPES pH 7.5, 20 °C, mean ± SD, n = 2 (2,4-PDCA n = 10), read-out: IC50”, the 50% inhibitory concentration (IC50) worked out at 6.66 ± 0.69 µM.
Consider `Clc1cnc(Oc2ccc(Oc3ncc(Cl)cc3Cl)cc2)c(Cl)c1` [TCPOBOP], for which the “% conversion” value stood at 30.30%.
With `CCN1/C(=C/C(C)=O)Sc2ccc(OC)cc21` [TG003], under setting [5], the “Plate 3 (% conversion)” value is recorded as 40.97%.
As to `Cl.O=c1[nH]oc2c1CCNC2` [THIP hydrochloride], the “% conversion” value was 36.67% and the “% inhibition” value is on record as -0.58%.
Turning to `CCN(CC)CCCCCCCCOC(=O)c1cc(OC)c(OC)c(OC)c1.Cl` [TMB-8 hydrochloride], under setting [3], the “Plate 1 (% inhibition)” value was -14.63%. Moreover, the “Plate 1 (% conversion)” value under setting [4] is 40.78%.
As to `CCCCCCC(=O)OC1CC(C)(C)NC(C)(C)C1.Cl` [TMPH hydrochloride], under setting [5], the “Plate 3 (% conversion)” value was 40.82%.
`CP(=O)(O)C1=CCNCC1` [TPMPA]: the “% conversion” value turned out to be 27.88%.
As to `C/C(=C\c1ccc(C(=O)O)cc1)c1ccc2c(c1)C(C)(C)CCC2(C)C` [TTNPB], the “% conversion” value under setting [1] came out at 26.33%.
Regarding `CC/C(=C(\c1ccccc1)c1ccc(OCCN(C)C)cc1)c1ccccc1` [Tamoxifen citrate], the “% conversion” value under setting [1] is 11.73%. Also, the inhibition at 20 µM under setting [2] came to 72.5%.
The matching figures for `NCCS(=O)(=O)O` [Taurine]: 39.69% and -9.43%.
For `CCOC(=O)c1ccc(C#Cc2ccc3c(c2)C(C)(C)CCS3)nc1` [Tazarotene], the “% conversion” value under setting [1] is recorded as 39.09%.
Same read-out and setting: the same measure for `O=c1[nH]c(=O)n(C2CCCO2)cc1F` (stereo not shown) [Tegafur]: 31.54%.
